PubChem BioAssay AID1963985 (Molecular Pharmacology Branch, DTP, NCI, 2024)

System: 252836-082-R-J2-PDC tumor spheroids, viability
Assay: Anticancer human tumor 252836-082-R-J2-PDC patient-derived head and neck squamous cell carcinoma cell line growth inhibition [PI3K]
Settings: spheroids with HUVEC and MSC; for IC50: curve of first compound; for viability, T/C: stronger effect = lower value
How it was run: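 Stroma-containing spheroids: tumor line, pooled-donor HUVEC, hMSC. Treatments: targeted agents with PI3K inhibitors. Dosing: clinically relevant, half-log spacing, 10 microM ceiling without known Cmax. Read-out: cell viability.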
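Also: spheroids exposed to agents for seven days before readout.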
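For viability, T/C in this document: percent of vehicle DMSO control viability so 100% = untreated growth.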

## CC(Cn1ccc(-c2ccc(C#N)c(Cl)c2)n1)NC(=O)c1cc(C(C)O)[nH]n1 (configuration not stated) + COc1c(OCCCN2CCOCC2)ccc2c3n(c(=NC(=O)c4cnc(N)nc4)nc12)CCN3
Second compound 0.00316 µM
  IC50: > 10 µM
Second compound 0.01 µM
  IC50: > 10 µM
Second compound 0.0316 µM
  IC50: > 10 µM
Second compound 0.1 µM
  IC50: < 0.0316 µM
Second compound 0.316 µM
  IC50: < 0.0316 µM
Second compound 1 µM
  IC50: < 0.0316 µM
Second compound 0.00316 µM, first compound 0.0316 µM
  viability, T/C: 102%
Second compound 0.00316 µM, first compound 0.1 µM
  viability, T/C: 90.5%
Second compound 0.00316 µM, first compound 0.316 µM
  viability, T/C: 101%
Second compound 0.00316 µM, first compound 1 µM
  viability, T/C: 94.4%
Second compound 0.00316 µM, first compound 3.16 µM
  viability, T/C: 91.4%
Second compound 0.00316 µM, first compound 10 µM
  viability, T/C: 84.9%
Second compound 0.01 µM, first compound 0.0316 µM
  viability, T/C: 81.7%
Second compound 0.01 µM, first compound 0.1 µM
  viability, T/C: 72.4%
Second compound 0.01 µM, first compound 0.316 µM
  viability, T/C: 87.2%
Second compound 0.01 µM, first compound 1 µM
  viability, T/C: 93.3%
Second compound 0.01 µM, first compound 3.16 µM
  viability, T/C: 93%
Second compound 0.01 µM, first compound 10 µM
  viability, T/C: 68.9%
Second compound 0.0316 µM, first compound 0.0316 µM
  viability, T/C: 65.3%
Second compound 0.0316 µM, first compound 0.1 µM
  viability, T/C: 62.8%
Second compound 0.0316 µM, first compound 0.316 µM
  viability, T/C: 62.6%
Second compound 0.0316 µM, first compound 1 µM
  viability, T/C: 63.9%
Second compound 0.0316 µM, first compound 3.16 µM
  viability, T/C: 68.3%
Second compound 0.0316 µM, first compound 10 µM
  viability, T/C: 56.1%
Second compound 0.1 µM, first compound 0.0316 µM
  viability, T/C: 35.3%
Second compound 0.1 µM, first compound 0.1 µM
  viability, T/C: 43.5%
Second compound 0.1 µM, first compound 0.316 µM
  viability, T/C: 36.6%
Second compound 0.1 µM, first compound 1 µM
  viability, T/C: 45.3%
Second compound 0.1 µM, first compound 3.16 µM
  viability, T/C: 35.6%
Second compound 0.1 µM, first compound 10 µM
  viability, T/C: 41.4%
Second compound 0.316 µM, first compound 0.0316 µM
  viability, T/C: 15.6%
Second compound 0.316 µM, first compound 0.1 µM
  viability, T/C: 15.8%
Second compound 0.316 µM, first compound 0.316 µM
  viability, T/C: 18.3%
Second compound 0.316 µM, first compound 1 µM
  viability, T/C: 20.3%
Second compound 0.316 µM, first compound 3.16 µM
  viability, T/C: 16.3%
Second compound 0.316 µM, first compound 10 µM
  viability, T/C: 16.5%
Second compound 1 µM, first compound 0.0316 µM
  viability, T/C: 5.58%
Second compound 1 µM, first compound 0.1 µM
  viability, T/C: 5.76%
Second compound 1 µM, first compound 0.316 µM
  viability, T/C: 4.24%
Second compound 1 µM, first compound 1 µM
  viability, T/C: 4.31%
Second compound 1 µM, first compound 3.16 µM
  viability, T/C: 6.92%
Second compound 1 µM, first compound 10 µM
  viability, T/C: 5.37%
